Assay results: patent US20250011299A1, “PYRIDAZINYL AMINO DERIVATIVES AS ALK5 INHIBITORS” (CHIESI FARMACEUTICI S.P.A., priority 2021, published 2025)
Several values for one entry are separate records, joined by “and”; a condition that tells them apart may be missing. Identical values can stand only once.

Molecular target: T1, human ALK5 (Homo sapiens, UniProt P36897)
T1 construct: human ALK5 (recombinant TGF β1 N-term GST-tagged, 80-end); GST (N); purchased
T1 sequence (P36897 80-503 limits assumed): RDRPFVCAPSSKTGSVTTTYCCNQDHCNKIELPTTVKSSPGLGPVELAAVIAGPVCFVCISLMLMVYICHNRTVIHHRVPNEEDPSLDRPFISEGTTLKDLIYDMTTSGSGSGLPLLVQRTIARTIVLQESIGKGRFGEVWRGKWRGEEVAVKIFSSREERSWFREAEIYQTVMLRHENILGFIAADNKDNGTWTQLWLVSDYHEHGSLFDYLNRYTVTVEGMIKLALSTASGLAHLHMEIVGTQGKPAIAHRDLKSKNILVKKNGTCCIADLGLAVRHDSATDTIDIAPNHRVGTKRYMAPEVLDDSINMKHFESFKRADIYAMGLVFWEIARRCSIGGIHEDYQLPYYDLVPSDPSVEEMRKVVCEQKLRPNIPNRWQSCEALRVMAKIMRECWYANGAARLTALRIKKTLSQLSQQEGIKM
Assay: ADP-GLO Kinases assay of ALK5 enzymatic activity
Format: biochemical
Details: purified recombinant human ALK5, TGFβ1 peptide substrate, pIC50 converted to pKi by Cheng-Prusoff, high ATP protocol (15 μM) for very potent compounds, 25° C.
Procedure: The enzymatic activity of compounds of the present invention was monitored measuring the formation of ADP using the ADP-GLO Kinases assay. Following the incubation of the purified enzyme, a substrate and ATP, the produced ADP was converted into ATP, which in turn was converted into light by Ultra-Glo Luciferase. The luminescent signal positively correlated with ADP amount and kinase activity. […] Compound and ALK5 kinase were mixed and incubated for 15 mins. […] After an incubation of 120 min, the reaction was stopped, and ADP production detected with ADP-Glo kit according to manufacturer's indications. […] After an incubation of 60 min, the kinase reaction was stopped, and ADP production detected with ADP-Glo kit according to manufacturer's indications. All reaction and incubation steps were performed at 25° C. and the assays were performed in 384-well format and validated using a selection of reference compounds tested in 11-point concentration-response curve. […] Results were expressed as pIC50 (negative logarithm of IC50) and subsequently converted to pKi (negative logarithm of […]) using the Cheng-Prusoff equation. The higher the value of pKi, the greater the inhibition of ALK5 activity.

SMILES	Ki
CN1CCN(CCOc2ccc3c(Nc4cc(-c5cc(Cl)ccc5F)nnc4OCC(F)(F)F)ccnc3c2)CC1 [Example 51, N-[6-(5-chloro-2-fluorophenyl)-3-(2,2,2-trifluoroethoxy)pyridazin-4-yl]-7-[2-(4-methylpiperazin-1-yl)ethoxy]quinolin-4-amine]	≤ 100 pM
CN1CCN(CCC(=O)Nc2cc(Nc3cc(-c4cc(Cl)ccc4F)nnc3SCCCO)ccn2)CC1 [Example 28, N-(4-{[6-(5-chloro-2-fluorophenyl)-3-[(3-hydroxypropyl)sulfanyl]pyridazin-4-yl]amino}pyridin-2-yl)-3-(4-methylpiperazin-1-yl)propanamide]	≤ 100 pM
CN(C)CCOc1nnc(-c2cc(Cl)ccc2F)cc1Nc1ccnc(NC(=O)C2CC2)c1 [Example 38, N-(4-{[6-(5-chloro-2-fluorophenyl)-3-[2-(dimethylamino)ethoxy]pyridazin-4-yl]amino}pyridin-2-yl)cyclopropanecarboxamide]	≤ 100 pM
COCCOc1nnc(-c2cc(Cl)ccc2F)cc1Nc1ccnc(NC(=O)CCN2CCOCC2)c1 [Example 34, N-(4-{[6-(5-chloro-2-fluorophenyl)-3-(2-methoxyethoxy)pyridazin-4-yl]amino}pyridin-2-yl)-3-(morpholin-4-yl)propanamide]	≤ 100 pM
CN1C[C@@H]2C[C@H]1CN2[C@H]1C[C@H](C(=O)Nc2cc(Nc3cc(-c4cc(Cl)ccc4F)nnc3SCCO)ccn2)C1 [Example 88, Trans N-(4-{[6-(5-chloro-2-fluorophenyl)-3-[(2-hydroxyethyl)sulfanyl]pyridazin-4-yl]amino}pyridin-2-yl)-3-[(1S,4S)-5-methyl-2,5-diazabicyclo[2.2.1]heptan-2-yl]cyclobutane-1-carboxamide]	≤ 100 pM
CS(=O)(=O)CCCOc1nnc(-c2cc(Cl)ccc2F)cc1Nc1ccnc(N)c1 [Example 56, N4-[6-(5-chloro-2-fluorophenyl)-3-(3-methanesulfonylpropoxy)pyridazin-4-yl]pyridine-2,4-diamine]	398 to 3160 pM
CC(C)OC(=O)C1CN(c2nnc(-c3cc(Cl)ccc3F)cc2Nc2ccnc(NC(=O)CCN3CCN(C)CC3)c2)C1 [Example 100, propan-2-yl 1-[6-(5-chloro-2-fluorophenyl)-4-({2-[3-(4-methylpiperazin-1-yl)propanamido]pyridin-4-yl}amino)pyridazin-3-yl]azetidine-3-carboxylate]	126 to 316 pM
CN1CCN(CCC(=O)Nc2cc(Nc3cc(-c4cc(Cl)ccc4F)nnc3S(C)(=O)=O)ccn2)CC1 [Example 18, N-(4-{[6-(5-chloro-2-fluorophenyl)-3-methanesulfonylpyridazin-4-yl]amino}pyridin-2-yl)-3-(4-methylpiperazin-1-yl)propanamide]	126 to 316 pM
CN1CCN(CCC(=O)Nc2cc(Nc3cc(-c4cc(Cl)ccc4F)nnc3N(C)[C@H]3CCOC3)ccn2)CC1 (single isomer, unassigned) [Example 106, N-(4-{[6-(5-chloro-2-fluorophenyl)-3-[methyl(oxolan-3-yl)amino]pyridazin-4-yl]amino}pyridin-2-yl)-3-(4-methylpiperazin-1-yl)propanamide]	126 to 316 pM
CN1CC2CC1CN2CC(=O)Nc1cc(Nc2cc(-c3cc(Cl)ccc3F)nnc2SCCO)ccn1 (stereo not drawn) [Example 25, N-(4-{[6-(5-chloro-2-fluorophenyl)-3-[(2-hydroxyethyl)sulfanyl]pyridazin-4-yl]amino}pyridin-2-yl)-2-{5-methyl-2,5-diazabicyclo[2.2.1]heptan-2-yl}acetamide]	≤ 100 pM
CN1CCN(CCC(=O)Nc2cc(Nc3cc(-c4cc(Cl)ccc4F)nnc3OCC(F)(F)F)ccn2)CC1 [Example 50, N-(4-{[6-(5-chloro-2-fluorophenyl)-3-(2,2,2-trifluoroethoxy)pyridazin-4-yl]amino}pyridin-2-yl)-3-(4-methylpiperazin-1-yl)propanamide]	≤ 100 pM
CSc1nnc(-c2cc(Cl)ccc2F)cc1Nc1ccnc(NC(=O)CCN2CCNCC2)c1 [Example 62, N-(4-{[6-(5-chloro-2-fluorophenyl)-3-(methylsulfanyl)pyridazin-4-yl]amino}pyridin-2-yl)-3-(piperazin-1-yl)propanamide]	≤ 100 pM
CN1CCN([C@H]2C[C@@H](C(=O)Nc3cc(Nc4cc(-c5cc(Cl)ccc5F)nnc4SCCO)ccn3)C2)CC12CC2 [Example 90, Cis N-(4-{[6-(5-chloro-2-fluorophenyl)-3-[(2-hydroxyethyl)sulfanyl]pyridazin-4-yl]amino}pyridin-2-yl)-3-{4-methyl-4,7-diazaspiro[2.5]octan-7-yl}cyclobutane-1-carboxamide]	≤ 100 pM
CN(C)CCOc1nnc(-c2cc(Cl)ccc2F)cc1Nc1ccnc(NC(=O)CCN2CCOCC2)c1 [Example 40, N-(4-{[6-(5-chloro-2-fluorophenyl)-3-[2-(dimethylamino)ethoxy]pyridazin-4-yl]amino}pyridin-2-yl)-3-(morpholin-4-yl)propanamide]	126 to 316 pM and 398 to 3160 pM
CN1CCN(CCCC(=O)Nc2cc(Nc3cc(-c4cc(Cl)ccc4F)nnc3SCCO)ccn2)CC1 [Example 23, N-(4-{[6-(5-chloro-2-fluorophenyl)-3-[(2-hydroxyethyl)sulfanyl]pyridazin-4-yl]amino}pyridin-2-yl)-4-(4-methylpiperazin-1-yl)butanamide]	126 to 316 pM

The remaining lines, values ahead:

Ki	SMILES
126 to 316 pM	CN1CCCN([C@H]2C[C@@H](C(=O)Nc3cc(Nc4cc(-c5cc(Cl)ccc5F)nnc4SCCO)ccn3)C2)CC1 [Example 155, Cis N-(4-{[6-(5-chloro-2-fluorophenyl)-3-[(2-hydroxyethyl)sulfanyl]pyridazin-4-yl]amino}pyridin-2-yl)-3-(4-methyl-1,4-diazepan-1-yl)cyclobutane-1-carboxamide]
≤ 100 pM	C[C@@H]1CN(CCC(=O)Nc2cc(Nc3cc(-c4cc(Cl)ccc4F)nnc3SCCO)ccn2)C[C@H](C)N1 [Example 178, N-(4-{[6-(5-chloro-2-fluorophenyl)-3-[(2-hydroxyethyl)sulfanyl]pyridazin-4-yl]amino}pyridin-2-yl)-3-(3,5-dimethylpiperazin-1-yl)propanamide]
126 to 316 pM	CN1CCN(CCC(=O)Nc2cc(Nc3cc(-c4cc(Cl)ccc4F)nnc3S)ccn2)CC1 [Example 179, N-(4-{[6-(5-chloro-2-fluorophenyl)-3-sulfanylpyridazin-4-yl]amino}pyridin-2-yl)-3-(4-methylpiperazin-1-yl)propanamide]
≤ 100 pM	CN1CCN([C@@H]2CC[C@H](C(=O)Nc3cc(Nc4cc(-c5cc(Cl)ccc5F)nnc4SCCO)ccn3)C2)CC1 (single isomer, unassigned; enantiomer 1) [Example 188, Cis Enantiomer 1 N-(4-{[6-(5-chloro-2-fluorophenyl)-3-[(2-hydroxyethyl)sulfanyl]pyridazin-4-yl]amino}pyridin-2-yl)-3-(4-methylpiperazin-1-yl)cyclopentane-1-carboxamide]
126 to 316 pM	O=C(O)C1CCN([C@H]2C[C@@H](C(=O)Nc3cc(Nc4cc(-c5cc(Cl)ccc5F)nnc4SCCO)ccn3)C2)CC1 [Example 167, Cis 1-{3-[(4-{[6-(5-chloro-2-fluorophenyl)-3-[(2-hydroxyethyl)sulfanyl]pyridazin-4-yl]amino}pyridin-2-yl)carbamoyl]cyclobutyl}piperidine-4-carboxylic acid]
≤ 100 pM	O=C(CCN1CCNCC1)Nc1cc(Nc2cc(-c3cc(Cl)ccc3F)nnc2SCCO)ccn1 [Example 153, N-(4-{[6-(5-chloro-2-fluorophenyl)-3-[(2-hydroxyethyl)sulfanyl]pyridazin-4-yl]amino}pyridin-2-yl)-3-(piperazin-1-yl)propanamide]
398 to 3160 pM	CC(C)OC(=O)C1CCN1c1nnc(-c2cc(Cl)ccc2F)cc1Nc1ccnc(NC(=O)CCN2C[C@@H](C)N[C@@H](C)C2)c1 (mixture of isomers) [Example 184, propan-2-yl 1-[6-(5-chloro-2-fluorophenyl)-4-({2-[3-(3,5-dimethylpiperazin-1-yl)propanamido]pyridin-4-yl}amino)pyridazin-3-yl]azetidine-2-carboxylate]
126 to 316 pM	CN1CCN(CCC(=O)Nc2cc(Nc3cc(-c4cc(Cl)ccc4F)nnc3OC[C@H]3C[C@@](C)(O)C3)ccn2)CC1 [Example 123, N-(4-{[6-(5-chloro-2-fluorophenyl)-3-[(3-hydroxy-3-methylcyclobutyl)methoxy]pyridazin-4-yl]amino}pyridin-2-yl)-3-(4-methylpiperazin-1-yl)propanamide]
≤ 100 pM	C[C@@H]1CN([C@H]2C[C@@H](C(=O)Nc3cc(Nc4cc(-c5cc(Cl)ccc5F)nnc4N(C)CC4(C)CCOC4=O)ncn3)C2)C[C@H](C)N1 (single isomer, unassigned) [Example 186, N-(6-{[6-(5-chloro-2-fluorophenyl)-3-{methyl[(3-methyl-2-oxooxolan-3-yl)methyl]amino}pyridazin-4-yl]amino}pyrimidin-4-yl)-3-(3,5-dimethylpiperazin-1-yl)cyclobutane-1-carboxamide]
